Source: patent US8058243B2, “Method for treating a brain cancer with ifenprodil” (HSC Research and Development Limited Partnership, priority 2006, dated 2011)
Counter-ions that a name gives are not always drawn. Like-named read-outs stand apart in the source and are kept apart here.

System: murine neural precursor cells (neurosphere cultures)
Experiment: HTS of LOPAC library against secondary neurosphere cultures, MTT proliferation assay at 3 μM, day 7 (z score, P value)
Type: cell-based, mouse
[1] = LOPAC library screen at 3 μM, MTT, secondary neurosphere cultures, screened in singlets
[2] = primary LOPAC screen, 3 μM, MTT, neurosphere proliferation
[3] = yes/no: significantly inhibited neurosphere proliferation in the primary screen
[4] = LOPAC library screen at 3 μM, secondary neurosphere cultures, MTT
[5] = LOPAC primary screen, neurosphere MTT proliferation, 3 μM, day 7
[6] = yes/no: significantly inhibited neurosphere proliferation in primary screen
[7] = yes = significantly inhibited neurosphere proliferation (P<0.01) in the primary screen
[8] = yes/no: significantly inhibited neurosphere proliferation (P<0.01) in primary screen
[9] = LOPAC library screen, 3 μM, MTT, secondary neurosphere cultures, day 7
[10] = yes/no: significantly inhibited neurosphere proliferation (P<0.01) in the primary screen
[11] = LOPAC screen, neurosphere MTT proliferation, 3 μM, day 7
[12] = LOPAC library screen, 3 μM, MTT, neurosphere cultures

Compound: CCN(CC)C(=S)SSC(=S)N(CC)CC [Tetraethylthiuram disulfide]
- Z Score [1]: 2.347
- Z score [2]: 2.347
- Activity [3]: no

Compound: O=C(O)CNC(=O)C(CS)Cc1ccccc1 (racemic) [DL-Thiorphan]
- Z Score [4]: −0.3116
- Z score [5]: −0.312
- Activity [6]: no

Compound: CNCCc1c[nH]c2ccc(O)cc12.O=C(O)C(=O)O
- Z Score: 0.656
- Z score [5]: 0.656
- Activity [7]: no

Compound: C[C@](N)(Cc1ccc(O)cc1)C(=O)O [L-alpha-Methyl-p-tyrosine]
- Z Score: −1.8
- Z score [5]: −1.800
- Activity [7]: no

Compound: O=c1[nH]c(=O)n([C@H]2C[C@H](O)[C@@H](CO)O2)cc1/C=C/Br [(E)-5-(2-Bromovinyl)-2′-deoxyuridine]
- Z Score (168 h, 3 µM): −2.123
- Z score (168 h, 3 µM): −2.123
- Activity [8]: no

Compound: CCN(CC)CCCC(C)Nc1c2ccc(Cl)cc2nc2ccc(OC)cc12 (stereo not shown) [Quinacrine dihydrochloride]
- Activity: yes
- Z Score [9]: −9.712
- Z score [5]: −9.712

Compound: C#CCOC(=O)C1=CCCN(C)C1 [Arecaidine propargyl ester hydrobromide]
- Z Score: −9.931
- Z score [5]: −9.931
- Activity [10]: yes

Compound: CCOC(=O)C1=C(C)NC(C)=C(C(=O)OC)C1c1cccc([N+](=O)[O-])c1 (stereo not shown) [Nitrendipine]
- Z Score [9]: −1.61
- Z score [5]: −1.610

Compound: CN1CCC(c2c[nH]c3ccc(O)cc23)CC1.O=C(O)/C=C\C(=O)O [BRL 54443 maleate]
- Z Score: 0.3378
- Z score [11]: 0.338
- Activity [8]: no

Compound: CN(C)CCC(c1ccc(Br)cc1)c1ccccn1.O=C(O)/C=C\C(=O)O (racemic) [(±)-Brompheniramine maleate]
- Z score [5]: −3.530
- Activity [10]: yes

Compound: Cl.O=c1cc(N2CCOCC2)oc2c(-c3ccccc3)cccc12 [LY-294,002 hydrochloride]
- Z Score: −1.217
- Z score [5]: −1.217
- Activity [8]: no

Compound: CC(C)C(=O)c1c(C(C)C)nn2ccccc12 [Ibudilast]
- Z Score [12]: 0.3787
- Z score [5]: 0.379

Compound: CNCCC(Oc1ccc(C(F)(F)F)cc1)c1ccccc1 (stereo not shown) [Fluoxetine hydrochloride]
- Activity: no
- Z Score [9]: −1.311
- Z score [5]: −1.311

Compound: N=C(N)NOCC[C@H](N)C(=O)O.O=S(=O)(O)O [L-Canavanine sulfate]
- Z Score: −0.9024
- Z score [11]: −0.902
- Activity [8]: no

Compound: O=C(O)CC[N+](=O)[O-] [3-Nitropropionic acid]
- Z Score: −0.5631
- Z score [5]: −0.563
- Activity [7]: no

Compound: N=C(N)NCCCCN.O=S(=O)(O)O [Agmatine sulfate]
- Z Score [12]: 0.5881
- Z score [5]: 0.588
- Activity [7]: no

Compound: CN(C)c1ccc(/C=C2\C(=O)Nc3ccccc32)cc1 [SU 4312]
- Z Score: 0.2692
- Z score [5]: 0.269
- Activity [6]: no

Compound: CSc1ccc2c(c1)C(N1CCN(C)CC1)Cc1ccccc1S2 (stereo not shown) [Methiothepin (38), Methiothepin, reference compound]
- Z Score (168 h, 3 µM): 1.868
- Z score (168 h, 3 µM): 1.868
- Activity [10]: no

Compound: Cn1c(=O)c2[nH]cnc2n(C)c1=O.Cn1c(=O)c2[nH]cnc2n(C)c1=O.NCCN [Aminophylline ethylenediamine]
- Activity: no
- Z Score [9]: −1.537
- Z score [2]: −1.537

Compound: Cc1ccc(OCC(O)C(C)NC(C)C)c2c1CCC2.Cl (stereo not shown) [ICI 118,551 hydrochloride]
- Z Score: 1.101
- Z score [5]: 1.101
- Activity [8]: no

Compound: COc1nc(C)nc(Cl)c1N=C1NCCN1 [Moxonidine hydrochloride]
- Z Score [12]: 0.2171
- Z score [5]: 0.217
- Activity [7]: no

Compound: O=C(CCCN1CCC(O)(c2ccc(Cl)cc2)CC1)c1ccc(F)cc1 [Haloperidol]
- Z Score [4]: −0.7399
- Z score [5]: −0.740
- Activity [8]: no

Compound: CCC1(c2ccccc2)C(=O)NCNC1=O [Primidone]
- Activity: no
- Z Score [12]: 0.6187
- Z score [5]: 0.619

Compound: R-(−)-Desmethyldeprenyl hydrochloride
- Z Score: −0.5056
- Z score [11]: −0.506
- Activity [8]: no

Compound: Cl.Cl.c1ccc(CCCN2CCN(CCOC(c3ccccc3)c3ccccc3)CC2)cc1 [GBR-12935 dihydrochloride]
- Z Score: −11.27
- Z score [5]: −11.274
- Activity [10]: yes

Compound: CN(C)c1ccc(O)c2c1C[C@H]1C[C@H]3[C@H](N(C)C)C(O)=C(C(N)=O)C(=O)[C@@]3(O)C(O)=C1C2=O [Minocycline hydrochloride]
- Z Score [12]: 0.4419
- Z score [5]: 0.442

Compound: N[C@@H](Cc1c[nH]c2ccc(O)cc12)C(=O)O [5-Hydroxy-L-tryptophan]
- Z Score [12]: 0.03011
- Z score [5]: 0.030
- Activity [8]: no

Compound: NC(=O)NO [Hydroxyurea]
- Z Score [12]: 1.131
- Z score [5]: 1.131
- Activity [8]: no

Compound: O=C(O)CCc1nc(-c2ccccc2)c(-c2ccccc2)o1 [Oxaprozin]
- Z Score [12]: 0.06616
- Z score [5]: 0.066
- Activity [6]: no

Compound: CCCN1CCC[C@@H](c2cccc(O)c2)C1.Cl [S(−)-3PPP hydrochloride]
- Z Score: −0.4205
- Z score [5]: −0.421
- Activity [6]: no

Compound: CN(C)CCCO[C@@H]1[C@H]2OC(C)(C)O[C@H]2O[C@@H]1[C@H](O)CO [Amiprilose hydrochloride]
- Z Score (168 h, 3 µM): −0.7783
- Z score (168 h, 3 µM): −0.778
- Activity [3]: no

Compound: CN(C)CCCN1c2ccccc2Sc2ccccc21 [Promazine hydrochloride]
- Z Score [4]: −0.8882
- Z score [5]: −0.888
- Activity [10]: no

Compound: Albuterol hemisulfate
- Z Score [4]: −0.949
- Z score [5]: −0.949
- Activity [6]: no

Compound: COC[C@H]1OC(=O)c2coc3c2[C@@]1(C)C1=C(C3=O)[C@@H]2CCC(=O)[C@@]2(C)C[C@H]1OC(C)=O [Wortmannin from Penicillium funiculosum]
- Z Score: 0.4079
- Z score [2]: 0.408
- Activity [3]: no

Compound: Cc1cc(NC(=O)Nc2ccc3c(ccn3C)c2)sn1 [SB 204741]
- Z Score: −2.299
- Z score [11]: −2.299
- Activity [8]: no

Compound: Cl.NCCCCNS(=O)(=O)c1ccc2c(Cl)cccc2c1 [N-(4-Aminobutyl)-5-chloro-2-naphthalenesulfonamide hydrochloride]
- Z Score (168 h, 3 µM): −0.9229

Compound: O=c1oc(Cl)c(Cl)c2ccccc12 [3,4-Dichloroisocoumarin]
- Z Score (168 h, 3 µM): −1.12
- Z score (168 h, 3 µM): −1.120
- Activity [8]: no

Compound: CCC(=O)N1CCN(C(=O)c2ccccc2)CC1 [DM 235]
- Z Score: −2.019
- Z score [11]: −2.019
- Activity [8]: no

Compound: Cl.O=C(O)C1=CCCNC1 [Guvacine hydrochloride]
- Z Score: −1.345
- Z score [5]: −1.345
- Activity [8]: no

Compound: S=C=Nc1ccc2oc(C3=NCCN3)cc2c1 [BU99006]
- Z Score: 1.182
- Z score [5]: 1.182
- Activity [8]: no

Compound: LY-367,265
- Z Score: −0.407
- Z score [5]: −0.407
- Activity [8]: no

Compound: CC(C)NCC(O)COc1cccc2[nH]ccc12 (stereo not shown) [Pindolol]
- Z Score [12]: −0.07895
- Z score [5]: −0.079
- Activity [6]: no

Compound: O=C(O)C1CN(CCCP(=O)(O)O)CCN1 (stereo not shown) [(B1)-CPP]
- Z Score: 0.3213

Compound: Cc1cn([C@H]2C=C[C@@H](CO)O2)c(=O)[nH]c1=O [2′,3′-didehydro-3′-deoxythymidine]
- Z Score [9]: −1.878
- Z score [11]: −1.878
- Activity [8]: no

Compound: CC(=O)C(C)=O [2,3-Butanedione]
- Z Score: −1.642
- Z score [11]: −1.642
- Activity [8]: no

Compound: O=c1nc2[nH]c3ccccc3nc-2c(=O)[nH]1 [Alloxazine]
- Z Score [4]: −0.4424
- Z score [2]: −0.442
- Activity [3]: no

Compound: CN[C@H](CC(C)C)C(=O)N[C@H]1C(=O)N[C@@H](CC(N)=O)C(=O)N[C@H]2C(=O)N[C@H]3C(=O)N[C@H](C(=O)N[C@H](C(=O)O)c4cc(O)cc(O)c4-c4cc3ccc4O)[C@H](O)c3ccc(c(Cl)c3)Oc3cc2cc(c3O[C@@H]2O[C@H](CO)[C@@H](O)[C@H](O)[C@H]2O[C@H]2C[C@](C)(N)[C@H](O)[C@H](C)O2)Oc2ccc(cc2Cl)[C@H]1O.Cl
- Z Score [12]: −0.06352
- Z score [2]: −0.064
- Activity [3]: no

Compound: NS(=O)(=O)c1cccc2c1c([N+](=O)[O-])cc1nc([O-])c([O-])nc12.[Na+].[Na+] [NBQX disodium]
- Z Score [9]: −1.675
- Z score [5]: −1.675
- Activity [6]: no

Compound: CC(NCCc1ccc(O)cc1)C(O)c1ccc(O)cc1 (stereo not shown) [Ritodrine hydrochloride]
- Z Score [9]: −2.332
- Z score [5]: −2.332
- Activity [10]: yes

Compound: CCc1cccc2c3c([nH]c12)C(CC)(CC(=O)O)OCC3 (stereo not shown) [Etodolac]
- Z Score [4]: −0.5582
- Z score [11]: −0.558
- Activity [8]: no

Compound: CC1(C)CCC2=C(O1)c1ccccc1C(=O)C2=O [beta-Lapachone]
- Z Score (168 h, 3 µM): −10.43
- Z score (168 h, 3 µM): −10.428
- Activity [7]: yes

Compound: CCN1CCC[C@H]1CNC(=O)c1c(O)c(Cl)cc(Cl)c1OC.O=C(O)C(O)C(O)C(=O)O (racemic) [S(+)-Raclopride L-tartrate]
- Z Score [1]: 1.901
- Z score [5]: 1.901
- Activity [10]: no

Compound: O=C(/C=C/c1ccc(O)c(O)c1)OCCc1ccccc1 [Caffeic acid phenethyl ester]
- Z Score (168 h, 3 µM): 1.306
- Z score (168 h, 3 µM): 1.306
- Activity [8]: no

Compound: COc1cc(OC)cc(C(CNc2ncnc3c2ncn3[C@@H]2O[C@H](CO)[C@@H](O)[C@H]2O)c2ccccc2C)c1 (stereo partly shown) [DPMA]
- Z Score: 0.03628
- Z score [11]: 0.036
- Activity [8]: no
